Source: ChEMBL document CHEMBL5725438, “Tetrazole derivatives and their use as potassium channel modulators” (2017)

Target: Intermediate conductance calcium-activated potassium channel protein 4 (Homo sapiens, UniProt O15554)
Assay: Inhibition Assay: Human HEK293 cells over-expressing human IK are grown in culture medium (DMEM supplemented with 10% foetal bovine serum), in polystyrene culture flasks ([…]) in a humidified atmosphere of 5% CO2 in air, at 37° C. Cell confluence should be 80-90% on day of plating. Cells are rinsed with 4 mL of PBS (phosphate buffered saline) and incubated 2 min with 1 mL of Trypsin-EDTA. After addition of 25 mL of culture medium cells are re-suspended by trituration with a 25 mL pipette.The cells are seeded at a density of 3×10^6 cells/mL (25 μL/well) in black-walled, clear bottom, 384-well plates pre-treated with 0.01 g/L poly-D-lysin (20 μL/well for ≧30 min). Plated cells were allowed to proliferate for 24 h before loading with dye.BTC-AM ([…], Invitrogen) is added 25.5 μl DMSO. The BTC-AM stock solution (2 mM) is diluted to a final concentration of 2 μM in Cl+ free assay buffer (in mM: 140 Na+-gluconate, 2.5 K+-gluconate, 6 Ca2+-gluconate, 1 Mg2+ gluconate, 5 glucose, 10 HEPES, pH 7.3) containing 2 μM ouabain, 2 mM amaranth and 1 mM tartrazine.The culture medium is aspirated from the wells, and 25 μl of the BTC-AM loading solution are added to each well. The cells are incubated at 37° C. for 60 min.After the loading period, the Tl+-sensitive BTC fluorescence signal is measured over time using a FLIPR.

Chain of Intermediate conductance calcium-activated potassium channel protein 4 (O15554 whole entry): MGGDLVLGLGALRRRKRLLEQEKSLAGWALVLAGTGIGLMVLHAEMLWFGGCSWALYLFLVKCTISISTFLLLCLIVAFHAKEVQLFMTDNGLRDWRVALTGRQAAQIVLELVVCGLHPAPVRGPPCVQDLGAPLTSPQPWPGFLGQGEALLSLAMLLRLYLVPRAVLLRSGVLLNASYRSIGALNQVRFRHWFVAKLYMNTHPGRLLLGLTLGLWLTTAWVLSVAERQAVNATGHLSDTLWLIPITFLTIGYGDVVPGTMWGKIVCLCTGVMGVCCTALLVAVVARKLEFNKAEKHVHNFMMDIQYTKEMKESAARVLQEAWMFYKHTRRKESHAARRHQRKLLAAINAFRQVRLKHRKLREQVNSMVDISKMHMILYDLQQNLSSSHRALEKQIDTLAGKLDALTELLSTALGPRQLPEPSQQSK

COCCNc1ccccc1-c1ccccc1-c1nnnn1-c1ccccc1F
IC50: 0.68 µM
